In ChEMBL document CHEMBL1136769 (J Med Chem, 2003):

How the values were obtained:
[1] = Inhibition of [3H]citalopram Binding to the Serotonin Transporter in Rhesus (Macaca mulatta) or Cynomolgus Monkey (Macaca fascicularis) Caudate-Putamen
[2] = target: Sodium-dependent dopamine transporter (Macaca mulatta); assay: Inhibition of [3H]WIN-35428 Binding to the Dopamine Transporter in Rhesus (Macaca mulatta) orCynomolgus Monkey (Macaca fascicularis) Caudate-Putamen

| Compound | IC50 [1] | IC50 [2] |
| --- | --- | --- |
| COC(=O)[C@H](c1ccc(Cl)c(Cl)c1)[C@@H]1CCCCO1 (single isomer, unassigned; 15) | > 10 µM |  |
| COC(=O)[C@H](c1ccc(Cl)c(Cl)c1)[C@H]1CCCCO1 | > 10 µM |  |
| COC(=O)[C@@H](c1ccc(Cl)c(Cl)c1)[C@H]1CCCCO1 (single isomer, unassigned) | 7.8 µM |  |
| COC(=O)C(c1ccc(Cl)c(Cl)c1)C1CCCCC1 (configuration not stated) | 12 µM |  |
| COC(=O)[C@@H](c1ccccc1)[C@@H]1CCCCO1 | > 100 µM | 3 µM |
| COC(=O)C(c1ccc(Cl)c(Cl)c1)C1CCCC1 (configuration not stated) | 7 µM | 0.047 µM |
| COC(=O)C(c1ccccc1)C1CCCCN1 (racemic) [METHYLPHENIDATE] | > 100 µM |  |
| N#CC(c1ccc(Cl)c(Cl)c1)C1CCCC1 (configuration not stated) | 10 µM | 0.128 µM |
| COC(=O)[C@@H](c1ccc(Cl)c(Cl)c1)[C@@H]1CCCCO1 (stereo in doubt; 4c) | 2.18 µM |  |
| N#CC(c1ccc(Cl)c(Cl)c1)C1CCCCC1 (configuration not stated) | 8 µM | 0.127 µM |
| COC(=O)[C@@H](c1ccc(Cl)c(Cl)c1)[C@@H]1CCCCO1 (stereo in doubt; 12) | 1.66 µM |  |
| COC(=O)[C@H](c1ccccc1)[C@@H]1CCCCO1 (single isomer, unassigned) | > 100 µM | 13 µM |
| COC(=O)[C@@H](c1ccc2ccccc2c1)[C@@H]1CCCCO1 | 1 µM | 0.43 µM |
| COC(=O)[C@H](c1ccc2ccccc2c1)[C@@H]1CCCCO1 (single isomer, unassigned) | 10 µM | 4 µM |
| COC(=O)[C@H](c1ccc(Cl)c(Cl)c1)[C@@H]1CCCCO1 (single isomer, unassigned; 5c) | 7.79 µM |  |
